SMILES strings stand for the structures.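 Following 48 hours of exposure in 96-well plates, responses at five concentrations were used to interpolate endpoints linearly. GI50: concentration for 50% inhibition of growth.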 Active and inactive are the calls of the source. Cut-off read from the data, not from the text of the source: active = GI50 up to about 1.1 µM and inactive = higher.

Test systems include LXFL 529; SNB-78; DMS-114; DMS-273; XF498; KM-20L2; HOP-18; RXF 631; DLD-1.
Holding throughout (experiment): NCI tumour cell line growth inhibition, 48 h

Take `CNC(=O)OCc1c2ccncc2c(C)c2c1[nH]c1ccc(OC)cc12`: the GI50 in the experiment on LXFL 529 is 0.115 µM (active); with SNB-78 it was 0.119 µM (active); with DMS-114, 0.226 µM (active); with DMS-273 it was 0.379 µM (active); in the experiment on XF498 it was 1.03 µM (active); with KM-20L2, 0.227 µM (active). The GI50 in the experiment on HOP-18 is 0.254 µM (active); in the experiment on RXF 631 it was 0.675 µM (active).
Take `O=C(/C=C/c1ccccc1)/C=C/c1ccccc1`: the GI50 with LXFL 529 was 21.2 µM (inactive); with SNB-78 it was 92.9 µM (inactive); with DMS-114, 21.6 µM (inactive); with DMS-273 it was 38.7 µM (inactive); in the experiment with DLD-1 it was 15.1 µM (inactive); in the experiment with KM-20L2, 22.1 µM (inactive). Moreover, the figures for the GI50 with HOP-18 and with RXF 631 were 28.6 µM (inactive) and 32.8 µM (inactive), respectively.
As for `C[Si](C)(C)OC1CC(=O)OC1n1cc(F)c(=O)[nH]c1=O` (centres undefined), the GI50 in the experiment on LXFL 529 is 52.4 µM (inactive); with DMS-114, 27.2 µM (inactive); in the experiment with DMS-273, 12.9 µM (inactive); in the experiment with XF498 it was 90.2 µM (inactive); in the experiment with DLD-1 it was 7.62 µM (inactive); in the experiment on KM-20L2 it was 16.2 µM (inactive). Besides, the GI50 in the experiment with HOP-18 was 23.2 µM (inactive); in the experiment with RXF 631, 14.6 µM (inactive).
As for `O=C(O)CNS(=O)(=O)c1ccc(NC(=O)c2cccc([N+](=O)[O-])c2)cc1`, the GI50 in the experiment on LXFL 529, in the experiment on DMS-273, in the experiment on XF498, in the experiment with DLD-1, with KM-20L2 and with HOP-18 was > 100 µM (inactive) throughout. Moreover, in the experiment with RXF 631, the GI50 is > 100 µM (inactive).
With `C/C=C1\CN2CCc3c([nH]c4ccccc34)C2C=C1CCO` (centres undefined), the GI50 in the experiment with LXFL 529 was > 340 µM (inactive); in the experiment on DMS-114 it was > 340 µM (inactive); in the experiment on DMS-273, > 340 µM (inactive); in the experiment with XF498, 208 µM (inactive); with DLD-1, > 340 µM (inactive); in the experiment with KM-20L2, > 340 µM (inactive). Moreover, the GI50 in the experiment with RXF 631 is > 340 µM (inactive).
`Cc1ccc(NC(=O)COC(=O)c2cccc3c(=O)c4ccccc4[nH]c23)cc1`: the GI50 with LXFL 529 was 32.1 µM (inactive); with SNB-78, 27.6 µM (inactive); in the experiment with DMS-114, 34.2 µM (inactive); in the experiment with DMS-273, 23.6 µM (inactive); with XF498, 41 µM (inactive); with DLD-1 it was 14.6 µM (inactive). Further, the values for the GI50 in the experiment on KM-20L2, in the experiment on HOP-18 and with RXF 631 were 53.2 µM (inactive), > 100 µM (inactive) and 24.4 µM (inactive), respectively.
With `COC1OC(COS(=O)(=O)c2ccc(C)cc2)C(O)C(OS(=O)(=O)c2ccc(C)cc2)C1OS(=O)(=O)c1ccc(C)cc1` (centres undefined), the GI50 with LXFL 529, with SNB-78, in the experiment with DMS-114, in the experiment with DMS-273, with DLD-1 and in the experiment with KM-20L2 was > 100 µM (inactive) throughout. For the same compound, the GI50 in the experiment with HOP-18 and with RXF 631 was > 100 µM (inactive) in each case.
Take `NS(=O)(=O)c1ccc(NC(=O)c2cccc3c(Nc4ccc(S(N)(=O)=O)cc4)c4ccccc4nc23)cc1`: the GI50 in the experiment with LXFL 529 was 12.2 µM (inactive); in the experiment with SNB-78 it was 29.8 µM (inactive); in the experiment with DMS-114, 39.3 µM (inactive); in the experiment with DMS-273 it was 1.85 µM (inactive); in the experiment on XF498 it was 27.2 µM (inactive); in the experiment with DLD-1 it was 24.7 µM (inactive). The GI50 was 67.1 µM (inactive) in the experiment with KM-20L2, > 100 µM (inactive) with HOP-18 and 3.48 µM (inactive) with RXF 631.
For `Nc1nc(N)c(-c2ccc(Cl)cc2)c(CCC(=O)Nc2cccc(C(F)(F)F)c2)n1`, the GI50 in the experiment on LXFL 529, with SNB-78, in the experiment on DMS-114, in the experiment with DMS-273, in the experiment on XF498 and in the experiment with DLD-1 was > 100 µM (inactive) throughout. Also, the GI50 in the experiment on KM-20L2, in the experiment with HOP-18 and in the experiment with RXF 631 was > 100 µM (inactive) in each case.
For `COC(=O)/C(=N\NC(C)(C)C)C(C(=O)OC)C(=O)C(=O)Nc1cc(Cl)ccc1Cl` (centres undefined), the GI50 with LXFL 529, in the experiment with SNB-78, in the experiment on DMS-114, in the experiment with DMS-273, with XF498 and with DLD-1 was > 100 µM (inactive) throughout. The GI50 with KM-20L2, in the experiment with HOP-18 and with RXF 631 was > 100 µM (inactive) throughout.
As to `O=C1CCC2(c3ccc(Cl)cc3)Nc3cc(Cl)ccc3N12` (centres undefined), the GI50 is 10.8 µM (inactive) in the experiment on LXFL 529; 15.3 µM (inactive) in the experiment with SNB-78; 7.4 µM (inactive) with DMS-114; 10.4 µM (inactive) in the experiment on DMS-273; 2.31 µM (inactive) in the experiment on XF498; 5.75 µM (inactive) with DLD-1. The GI50 in the experiment with KM-20L2 was 15.2 µM (inactive); with HOP-18, 1.25 µM (inactive); with RXF 631 it was 14.7 µM (inactive).
On to `Nc1ccc(C(=O)Nc2ccccc2N)cc1` [DINALINE], for which the GI50 in the experiment with LXFL 529 is 22.5 µM (inactive); in the experiment with SNB-78 it was > 100 µM (inactive); in the experiment with DMS-114, 34.5 µM (inactive); in the experiment on DMS-273, 59.7 µM (inactive); in the experiment on XF498, > 100 µM (inactive); with DLD-1, 44.3 µM (inactive). In addition, the GI50 in the experiment on HOP-18 was 36.7 µM (inactive); in the experiment with RXF 631 it was 37.4 µM (inactive).

Values taken from ChEMBL document CHEMBL1201862, “PubChem BioAssay data set” (2004).
